In patent publication US20260265195A1, “SARM1 MODULATORS, PREPARATIONS, AND USES THEREOF” (SIRONAX LTD, priority 2022, published 2026):

Molecular target: T1, SARM1 (50-724) (Homo sapiens, UniProt Q6SZW1)
T1 construct: Purified SARM1 (50-724) with a final concentration of 2 nM
T1 sequence (Q6SZW1 50-724): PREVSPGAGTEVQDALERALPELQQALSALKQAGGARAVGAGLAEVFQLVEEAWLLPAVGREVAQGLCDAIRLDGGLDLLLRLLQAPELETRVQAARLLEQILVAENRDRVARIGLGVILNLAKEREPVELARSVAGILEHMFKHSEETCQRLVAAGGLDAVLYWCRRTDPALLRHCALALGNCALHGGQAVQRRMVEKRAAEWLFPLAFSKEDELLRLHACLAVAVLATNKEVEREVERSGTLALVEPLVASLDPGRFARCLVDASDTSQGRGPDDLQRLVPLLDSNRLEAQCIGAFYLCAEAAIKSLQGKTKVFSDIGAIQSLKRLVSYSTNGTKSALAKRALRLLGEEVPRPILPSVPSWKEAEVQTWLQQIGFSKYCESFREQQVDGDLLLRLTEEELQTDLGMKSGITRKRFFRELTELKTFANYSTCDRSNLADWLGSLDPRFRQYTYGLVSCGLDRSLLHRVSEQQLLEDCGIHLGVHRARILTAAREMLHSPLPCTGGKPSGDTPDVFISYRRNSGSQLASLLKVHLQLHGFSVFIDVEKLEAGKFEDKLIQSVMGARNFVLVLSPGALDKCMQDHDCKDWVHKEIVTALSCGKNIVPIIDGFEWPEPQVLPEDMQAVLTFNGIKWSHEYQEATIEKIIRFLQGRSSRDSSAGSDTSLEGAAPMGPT
Assay: SARM1 (50-724) enzymatic assay (NMN-activated NAD+ hydrolysis, LC-MS/MS readout)
Type: biochemical
Conditions: purified SARM1 (50-724) 2 nM, 200 μM NMN activator, 100 μM NAD+ substrate, 1 h at room temperature, read-out: IC50 (SARM1 inhibitory activity)
Outline: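 Purified human SARM1 (50-724), 2 nM final in DPBS, pre-incubated 15 min at RT with compound (1% DMSO), then started with 200 μM NMN activator and 100 μM NAD+. After 1 h at RT, quenched with 70% acetonitrile; analysed by LC-MS/MS.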

Compound | IC50 [µM]
CN(C(=O)c1nc2cc(C(F)(F)F)ccc2[nH]1)c1cc(F)cc(Cl)c1Cl [Compound 120, N-(2,3-dichloro-5-fluorophenyl)-N-methyl-5-(trifluoromethyl)-1H-benzo[d]imidazole-2-carboxamido] | ≤ 0.1
CNCCN(C(=O)c1nc2cc(C(F)(F)F)ccc2[nH]1)c1cccc(Cl)c1Cl [Compound 121, N-(2,3-dichlorophenyl)-N-(2-(methylamino)ethyl)-5-(trifluoromethyl)-1H-benzo[d]imidazole-2-carboxamide] | 0.101 to 0.5
Cc1cc(-c2ccc3[nH]c(C(=O)N(CC4COC4)c4cccc(Cl)c4Cl)nc3c2)[nH]n1 [Compound 122] | 0.101 to 0.5
Cc1ccc2[nH]c(C(=O)N(C)c3cccc(Cl)c3Cl)nc2c1 [Compound 123, N-(2,3-dichlorophenyl)-N,5-dimethyl-1H-benzimidazole-2-carboxamide] | ≤ 0.1
Cc1cn[nH]c1-c1ccc2[nH]c(C(=O)N(CC3COC3)c3cccc(Cl)c3Cl)nc2c1 [Compound 124] | ≥ 1
Cc1cccc(N(C)C(=O)c2nc3cc(C(F)(F)F)ccc3[nH]2)c1Cl [Compound 125, N-(2-chloro-3-methylphenyl)-N-methyl-5-(trifluoromethyl)-1H-benzo[d]imidazole-2-carboxamide] | ≤ 0.1
Cn1nc(Cl)c(Cl)c1N(CCO)C(=O)c1nc2cc(C(F)(F)F)ccc2[nH]1 [Compound 126, N-(3,4-dichloro-1-methyl-1H-pyrazol-5-yl)-N-(2-hydroxyethyl)-5-(trifluoromethyl)-1H-benzo[d]imidazole-2-carboxamide] | ≥ 1
O=C(c1nc2cc(C(F)(F)F)ccc2[nH]1)N(c1cn[nH]c1)c1cccc(Cl)c1Cl [Compound 127, N-(2,3-dichlorophenyl)-N-(1H-pyrazol-4-yl)-5-(trifluoromethyl)-1H-benzo[d]imidazole-2-carboxamide] | ≤ 0.1
O=C(c1nc2cc(C(F)(F)F)ccc2[nH]1)N(CCOCCO)c1cccc(Cl)c1Cl [Compound 128, N-(2,3-dichlorophenyl)-N-(2-(2-hydroxyethoxy)ethyl)-5-(trifluoromethyl)-1H-benzo[d]imidazole-2-carboxamide] | ≤ 0.1
CS(=O)(=O)CCCN(C(=O)c1nc2cc(C(F)(F)F)ccc2[nH]1)c1cccc(Cl)c1Cl [Compound 129, N-(2,3-dichlorophenyl)-N-(3-(methylsulfonyl)propyl)-5-(trifluoromethyl)-1H-benzo[d]imidazole-2-carboxamide] | ≤ 0.1
O=C(c1nc2cc(C(F)(F)F)cc(F)c2[nH]1)N(c1cccc(F)c1Cl)C1CCS(=O)(=O)CC1 [Compound 130] | ≤ 0.1
O=C(c1nc2cc(C(F)(F)F)ccc2[nH]1)N(Cc1cc[nH]n1)c1cccc(Cl)c1Cl [Compound 132, N-((1H-pyrazol-3-yl)methyl)-N-(2,3-dichlorophenyl)-5-(trifluoromethyl)-1H-benzo[d]imidazole-2-carboxamide] | ≤ 0.1
Cc1c(Cl)cncc1N(CC(F)(F)CO)C(=O)c1nc2cc(C(F)(F)F)ccc2[nH]1 [Compound 133, N-(5-chloro-4-methylpyridin-3-yl)-N-(2,2-difluoro-3-hydroxypropyl)-5-(trifluoromethyl)-1H-benzo[d]imidazole-2-carboxamide] | ≤ 0.1
O=C(c1nc2cc(C(F)(F)F)ccc2[nH]1)N(CCC1CNC1)c1cccc(Cl)c1Cl [Compound 134, N-(2-(azetidin-3-yl)ethyl)-N-(2,3-dichlorophenyl)-5-(trifluoromethyl)-1H-benzo[d]imidazole-2-carboxamide] | 0.101 to 0.5
O=C(c1nc2cc(C(F)(F)F)ccc2[nH]1)N(CC1(F)COC1)c1cccc(Cl)c1Cl [Compound 135, N-(2,3-dichlorophenyl)-N-((3-fluorooxetan-3-yl)methyl)-5-(trifluoromethyl)-1H-benzo[d]imidazole-2-carboxamido] | ≤ 0.1
Cc1c(Cl)cccc1N(CCO)C(=O)c1nc2cc(C(F)(F)F)ccc2[nH]1 [Compound 137, N-(3-chloro-2-methylphenyl)-N-(2-hydroxyethyl)-5-(trifluoromethyl)-1H-benzo[d]imidazole-2-carboxamide] | ≤ 0.1
Cc1ccnc(N(CCO)C(=O)c2nc3cc(C(F)(F)F)ccc3[nH]2)c1Cl [Compound 138, N-(3-chloro-4-methylpyridin-2-yl)-N-(2-hydroxyethyl)-5-(trifluoromethyl)-1H-benzo[d]imidazole-2-carboxamide] | 0.101 to 0.5
Cn1cc(-c2ccc3[nH]c(C(=O)N(CCO)c4cccc(Cl)c4Cl)nc3c2)cn1 [Compound 139, N-(2,3-dichlorophenyl)-N-(2-hydroxyethyl)-5-(1-methyl-1H-pyrazol-4-yl)-1H-benzo[d]imidazole-2-carboxamide] | 0.101 to 0.5
COC(=O)CN(C(=O)c1nc2cc(C(F)(F)F)ccc2[nH]1)c1cccc(Cl)c1Cl [Compound 140, Methyl N-(2,3-dichlorophenyl)-N-(5-(trifluoromethyl)-1H-benzo[d]imidazole-2-carbonyl)glycinate] | ≤ 0.1
NC(=O)CN(C(=O)c1nc2cc(C(F)(F)F)ccc2[nH]1)c1cccc(Cl)c1Cl [Compound 141, N-(2-amino-2-oxoethyl)-N-(2,3-dichlorophenyl)-5-(trifluoromethyl)-1H-benzo[d]imidazole-2-carboxamide] | ≤ 0.1

Continued, values first:

IC50 [µM] | Compound
≥ 1 | Cc1c(-c2ccn[nH]2)ccc2[nH]c(C(=O)N(CC3COC3)c3cccc(Cl)c3Cl)nc12 [Compound 142]
≥ 1 | O=C(c1nc2c(Cl)c(-c3ccn[nH]3)ccc2[nH]1)N(CC1COC1)c1cccc(Cl)c1Cl [Compound 143]
0.101 to 0.5 | Cc1cc(-c2ccc3[nH]c(C(=O)N(CCO)c4cccc(Cl)c4Cl)nc3c2)sn1 [Compound 144]
0.101 to 0.5 | Cc1c(Cl)ccnc1N(CCO)C(=O)c1nc2cc(C(F)(F)F)ccc2[nH]1 [Compound 145, N-(4-chloro-3-methylpyridin-2-yl)-N-(2-hydroxyethyl)-5-(trifluoromethyl)-1H-benzo[d]imidazole-2-carboxamide]
≤ 0.1 | CC(=O)NCCN(C(=O)c1nc2cc(C(F)(F)F)ccc2[nH]1)c1cccc(Cl)c1Cl [Compound 146, N-(2-acctamidoethyl)-N-(2,3-dichlorophenyl)-5-(trifluoromethyl)-1H-benzo[d]imidazole-2-carboxamide]
≤ 0.1 | CS(=O)(=O)NCCN(C(=O)c1nc2cc(C(F)(F)F)ccc2[nH]1)c1cccc(Cl)c1Cl [Compound 147, N-(2,3-dichlorophenyl)-N-(2-(methylsulfonamido)ethyl)-5-(trifluoromethyl)-1H-benzo[d]imidazole-2-carboxamide]
≤ 0.1 | Cc1c(Cl)cncc1N(CCO)C(=O)c1nc2cc(C(F)(F)F)ccc2[nH]1 [Compound 148, N-(5-chloro-4-methylpyridin-3-yl)-N-(2-hydroxyethyl)-5-(trifluoromethyl)-1H-benzo[d]imidazole-2-carboxamide]
0.101 to 0.5 | O=C(c1nc2cc(C(F)(F)F)ccc2[nH]1)N(CCN1CCC1)c1cccc(Cl)c1Cl [Compound 149, N-(2-(azetidin-1-yl)ethyl)-N-(2,3-dichlorophenyl)-6-(trifluoromethyl)-1H-benzo[d]imidazole-2-carboxamide]
≤ 0.1 | CC(C)(O)c1ccc2[nH]c(C(=O)N(CCO)c3cccc(Cl)c3Cl)nc2c1 [Compound 150, N-(2,3-dichlorophenyl)-N-(2-hydroxyethyl)-5-(2-hydroxypropan-2-yl)-1H-benzo[d]imidazole-2-carboxamide]
